PMC10538245, “Fragment merging approach for design, synthesis, and biological assessment of urea/acetyl hydrazide clubbed thienopyrimidine derivatives as GSK-3β inhibitors” (BMC Chemistry, 2023)

Tests used:
GSK-3β = GSK-3β (Homo sapiens, UniProt P49841); test: GSK-3β kinase inhibition, Z'-LYTE FRET assay (Thermo Fisher SelectScreen); format: biochemical; conditions: for inhibition at 100 µM: 100 μM single dose
UO-31 = test: NCI 60-cell line one dose antiproliferative assay; format: cell-based; conditions: Homo sapiens; UO-31, Renal Cancer, 10 µM one dose; read-out: Percent inhibition (cell growth inhibition %)
Description: (§1) The National Cancer Institute "NCI", NIH, Bethesda, Maryland, USA (www.dtp.nci.nih.gov) chose six of the final compounds for the Developmental Therapeutic Program (DTP), codes (5a, 5b, 5c, 5d, 6a, 6b). The NCI screening service will favor compounds with drug-like modes of action based on computer-aided design. Selection The criterion for screening is the possibility of the submitted compounds to provide diversity to the NCI small molecule chemical collection. This screen employs 60 different Leukemia, melanoma, and additional tumor cell lines of the human from brain, kidney, lung, ovary, colon, breast, and prostate cancers. All compounds were picked based on their NCI codes. NSC: D-820696/1, NSC: D-820697/1, NSC: D-820698/1, NSC: D-820699/1, NSC: D-820700/1, NSC: D-820701/1. The initial 10 µM one dose percent inhibition assay was performed on the entire NCI 60 cell panel to examine the different chemotypes of this work. The results are presented as a percentage of cell growth on each of the 60 NCI cell line panels for each of the investigated substances in Table 2.
(§2) The NCI cancer screening procedure includes a comparison of all substances to the sixty NCI cell line panel representing leukemia, NSCLC, cell lines from breast cancer, prostate cancer, melanoma, CNS cancer, renal cancer, ovarian cancer, and colon cancer at a single point of 10 uM. The results of the single-dose screen can be presented using a mean graph.

MALME-3 M = test: NCI 60-cell line one dose antiproliferative assay; format: cell-based; conditions: Homo sapiens, Melanoma, 10 µM one dose, read-out: Percent inhibition (cell growth inhibition %)
Description: as §1, §2

A498 = test: NCI 60-cell line one dose antiproliferative assay; format: cell-based; conditions: Homo sapiens; A498, Renal Cancer, 10 µM one dose; read-out: Percent inhibition (cell growth inhibition %)
Description: as §1, §2

MCF7 = test: NCI 60-cell line one dose antiproliferative assay; format: cell-based; conditions: Homo sapiens; MCF7, Breast Cancer, 10 µM one dose; read-out: Percent inhibition (cell growth inhibition %)
Description: as §1, §2

T-47D = test: NCI 60-cell line one dose antiproliferative assay; format: cell-based; conditions: Homo sapiens, T47D, Breast Cancer, 10 µM one dose, read-out: Percent inhibition (cell growth inhibition %)
Description: as §1, §2

SF-539 = test: NCI 60-cell line one dose antiproliferative assay; format: cell-based; conditions: Homo sapiens; SF-539, CNS Cancer, 10 µM one dose; read-out: Percent inhibition (cell growth inhibition %)
Description: as §1, §2

LOX IMVI = test: NCI 60-cell line one dose antiproliferative assay; format: cell-based; conditions: Homo sapiens, Melanoma, 10 µM one dose, read-out: Percent inhibition (cell growth inhibition %)
Description: as §1, §2

U251 = test: NCI 60-cell line one dose antiproliferative assay; format: cell-based; conditions: Homo sapiens, U-251; U251, CNS Cancer, 10 µM one dose; read-out: Percent inhibition (cell growth inhibition %)
Description: as §1, §2

NCI-H226 = test: NCI 60-cell line one dose antiproliferative assay; format: cell-based; conditions: Homo sapiens; NCI-H226, Non-Small Cell Lung Cancer, 10 µM one dose; read-out: Percent inhibition (cell growth inhibition %)
Description: as §1, §2

UACC-62 = test: NCI 60-cell line one dose antiproliferative assay; format: cell-based; conditions: Homo sapiens; UACC-62, Melanoma, 10 µM one dose; read-out: Percent inhibition (cell growth inhibition %)
Description: as §1, §2

SNB-75 = test: NCI 60-cell line one dose antiproliferative assay; format: cell-based; conditions: Homo sapiens; SNB-75, CNS Cancer, 10 µM one dose; read-out: Percent inhibition (cell growth inhibition %)
Description: as §1, §2

SN12C = test: NCI 60-cell line one dose antiproliferative assay; format: cell-based; conditions: Homo sapiens, Renal Cancer, 10 µM one dose, read-out: Percent inhibition (cell growth inhibition %)
Description: as §1, §2

SR = test: NCI 60-cell line one dose antiproliferative assay; format: cell-based; conditions: Homo sapiens, Leukemia, 10 µM one dose, read-out: Percent inhibition (cell growth inhibition %)
Description: as §1, §2

HS 578 T = test: NCI 60-cell line one dose antiproliferative assay; format: cell-based; conditions: Homo sapiens, Breast Cancer, 10 µM one dose, read-out: Percent inhibition (cell growth inhibition %)
Description: as §1, §2

K-562 = test: NCI 60-cell line one dose antiproliferative assay; format: cell-based; conditions: Homo sapiens, K562; K-562, Leukemia, 10 µM one dose; read-out: Percent inhibition (cell growth inhibition %)
Description: as §1, §2

786–0 = test: NCI 60-cell line one dose antiproliferative assay; format: cell-based; conditions: Homo sapiens; 786–0, Renal Cancer, 10 µM one dose; read-out: Percent inhibition (cell growth inhibition %)
Description: as §1, §2

HOP-92 = test: NCI 60-cell line one dose antiproliferative assay; format: cell-based; conditions: Homo sapiens; HOP-92, Non-Small Cell Lung Cancer, 10 µM one dose; read-out: Percent inhibition (cell growth inhibition %)
Description: as §1, §2

OVCAR-5 = test: NCI 60-cell line one dose antiproliferative assay; format: cell-based; conditions: Homo sapiens; OVCAR-5, Ovarian Cancer, 10 µM one dose; read-out: Percent inhibition (cell growth inhibition %)
Description: as §1, §2

M14 = test: NCI 60-cell line one dose antiproliferative assay; format: cell-based; conditions: Homo sapiens; M14, Melanoma, 10 µM one dose; read-out: Percent inhibition (cell growth inhibition %)
Description: as §1, §2

NCI-H522 = test: NCI 60-cell line one dose antiproliferative assay; format: cell-based; conditions: Homo sapiens; NCI-H522, Non-Small Cell Lung Cancer, 10 µM one dose; read-out: Percent inhibition (cell growth inhibition %)
Description: as §1, §2

SK-MEL-5 = test: NCI 60-cell line one dose antiproliferative assay; format: cell-based; conditions: Homo sapiens; SK-MEL-5, Melanoma, 10 µM one dose; read-out: Percent inhibition (cell growth inhibition %)
Description: as §1, §2

IGROV1 = test: NCI 60-cell line one dose antiproliferative assay; format: cell-based; conditions: Homo sapiens, IGROV-1; IGROV1, Ovarian Cancer, 10 µM one dose; read-out: Percent inhibition (cell growth inhibition %)
Description: as §1, §2

PC-3 = test: NCI 60-cell line one dose antiproliferative assay; format: cell-based; conditions: Homo sapiens; PC-3, Prostate Cancer, 10 µM one dose; read-out: Percent inhibition (cell growth inhibition %)
Description: as §1, §2

CAKI-1 = test: NCI 60-cell line one dose antiproliferative assay; format: cell-based; conditions: Homo sapiens; CAKI-1, Renal Cancer, 10 µM one dose; read-out: Percent inhibition (cell growth inhibition %)
Description: as §1, §2

MDA-MB-231/ATCC = test: NCI 60-cell line one dose antiproliferative assay; format: cell-based; conditions: Homo sapiens, Breast Cancer, 10 µM one dose, read-out: Percent inhibition (cell growth inhibition %)
Description: as §1, §2

SF-295 = test: NCI 60-cell line one dose antiproliferative assay; format: cell-based; conditions: Homo sapiens; SF-295, CNS Cancer, 10 µM one dose; read-out: Percent inhibition (cell growth inhibition %)
Description: as §1, §2

SNB-19 = test: NCI 60-cell line one dose antiproliferative assay; format: cell-based; conditions: Homo sapiens; SNB-19, CNS Cancer, 10 µM one dose; read-out: Percent inhibition (cell growth inhibition %)
Description: as §1, §2

ACHN = test: NCI 60-cell line one dose antiproliferative assay; format: cell-based; conditions: Homo sapiens, Renal Cancer, 10 µM one dose, read-out: Percent inhibition (cell growth inhibition %)
Description: as §1, §2

SF-268 = test: NCI 60-cell line one dose antiproliferative assay; format: cell-based; conditions: Homo sapiens; SF-268, CNS Cancer, 10 µM one dose; read-out: Percent inhibition (cell growth inhibition %)
Description: as §1, §2

MOLT-4 = test: NCI 60-cell line one dose antiproliferative assay; format: cell-based; conditions: Homo sapiens; MOLT-4, Leukemia, 10 µM one dose; read-out: Percent inhibition (cell growth inhibition %)
Description: as §1, §2

HCT-116 = test: NCI 60-cell line one dose antiproliferative assay; format: cell-based; conditions: Homo sapiens; HCT-116, Colon Cancer, 10 µM one dose; read-out: Percent inhibition (cell growth inhibition %)
Description: as §1, §2

BT-549 = test: NCI 60-cell line one dose antiproliferative assay; format: cell-based; conditions: Homo sapiens; BT-549, Breast Cancer, 10 µM one dose; read-out: Percent inhibition (cell growth inhibition %)
Description: as §1, §2

EKVX = test: NCI 60-cell line one dose antiproliferative assay; format: cell-based; conditions: Homo sapiens, Non-Small Cell Lung Cancer, 10 µM one dose, read-out: Percent inhibition (cell growth inhibition %)
Description: as §1, §2

A549/ ATCC = test: NCI 60-cell line one dose antiproliferative assay; format: cell-based; conditions: Homo sapiens, Non-Small Cell Lung Cancer, 10 µM one dose, read-out: Percent inhibition (cell growth inhibition %)
Description: as §1, §2

NCI-H23 = test: NCI 60-cell line one dose antiproliferative assay; format: cell-based; conditions: Homo sapiens; NCI-H23, Non-Small Cell Lung Cancer, 10 µM one dose; read-out: Percent inhibition (cell growth inhibition %)
Description: as §1, §2

MDA-MB-435 = test: NCI 60-cell line one dose antiproliferative assay; format: cell-based; conditions: Homo sapiens; MDA-MB-435, Melanoma, 10 µM one dose; read-out: Percent inhibition (cell growth inhibition %)
Description: as §1, §2

Sequence of GSK-3β (P49841 whole entry): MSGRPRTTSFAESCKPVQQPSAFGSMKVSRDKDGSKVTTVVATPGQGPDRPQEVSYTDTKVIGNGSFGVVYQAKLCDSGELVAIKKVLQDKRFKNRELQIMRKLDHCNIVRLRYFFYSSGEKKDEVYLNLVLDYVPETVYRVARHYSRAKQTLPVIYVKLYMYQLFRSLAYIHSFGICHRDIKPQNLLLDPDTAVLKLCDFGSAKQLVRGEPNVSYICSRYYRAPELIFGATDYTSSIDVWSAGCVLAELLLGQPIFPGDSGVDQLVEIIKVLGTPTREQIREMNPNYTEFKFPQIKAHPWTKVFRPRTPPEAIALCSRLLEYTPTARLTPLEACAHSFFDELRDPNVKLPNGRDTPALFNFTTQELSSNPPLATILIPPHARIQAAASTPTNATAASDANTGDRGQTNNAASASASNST

SMILES | melting point | inhibition at 100 µM (GSK-3β) | inhibition at 10 µM (UO-31) | inhibition at 10 µM (A498) | inhibition at 10 µM (MCF7) | inhibition at 10 µM (SF-539) | inhibition at 10 µM (LOX IMVI) | inhibition at 10 µM (U251) | inhibition at 10 µM (UACC-62) | inhibition at 10 µM (SNB-75) | inhibition at 10 µM (SN12C) | inhibition at 10 µM (SR) | inhibition at 10 µM (HS 578 T) | inhibition at 10 µM (K-562) | inhibition at 10 µM (786–0) | inhibition at 10 µM (OVCAR-5) | inhibition at 10 µM (NCI-H522) | inhibition at 10 µM (IGROV1) | inhibition at 10 µM (CAKI-1) | inhibition at 10 µM (MDA-MB-231/ATCC) | also measured
COc1ccc(C=NNC(=O)COc2ncnc3sc4c(c23)CCCC4)c(OC)c1OC [5a, 2-((5,6,7,8-Tetrahydrobenzo [4,5]thieno[2,3-d]pyrimidin-4-yl)oxy)-N'-(2,3,4-trimethoxybenzylidene) acetohydrazide] | 280 to 281 °C | 24% | 23.3% | 11.8% | 10.7% | 5.93% | 4.82% | 0.3% | 8.06% | 28.5% | 5.91% | 2.15% | 7.21% | 7.93% | 0.81% | 5% | 5.39% | 1.47% | 7.04% | 6.61% | inhibition at 10 µM (GSK-3β; 10 μM): 6%; inhibition at 10 µM (MALME-3 M): 2.96%; inhibition at 10 µM (T-47D): 4.24%; inhibition at 10 µM (NCI-H226): 0.3%; inhibition at 10 µM (HOP-92): 2.18%; inhibition at 10 µM (M14): 1.68%; inhibition at 10 µM (SK-MEL-5): 1.37%; inhibition at 10 µM (PC-3): 2.52%; inhibition at 10 µM (SF-295): 0.79%; inhibition at 10 µM (SNB-19): 6.88%; inhibition at 10 µM (ACHN): 0.55%; inhibition at 10 µM (SF-268): 0.3%
O=C(COc1ncnc2sc3c(c12)CCCC3)NN=Cc1ccc(Br)cc1 [5c, N'-(4-Bromobenzylidene)-2-((5,6,7,8-tetrahydrobenzo[4,5]thieno[2,3-d]pyrimidin-4-yl)oxy)acetohydrazide] | 290 to 292 °C | 43% | 16.6% | 21.3% | 8.67% | 1.02% | 3.68% | 6.99% | 6.58% | 13.6% | 3.09% | 8.29% | 7.31% | 13.5% | 5.22% | 10% | 10.3% | 2.52% | 16.7% | 11.2% | inhibition at 10 µM (MOLT-4): 9.38%; inhibition at 10 µM (HCT-116): 3.24%; inhibition at 10 µM (BT-549): 2.58%; inhibition at 10 µM (EKVX): 3.66%; inhibition at 10 µM (A549/ ATCC): 1.87%; inhibition at 10 µM (NCI-H23): 0.25%; inhibition at 10 µM (MDA-MB-435): 0.85%; inhibition at 10 µM (SNB-19): 5.53%; inhibition at 10 µM (SF-268): 5.08%
